The values that follow come from ChEMBL document CHEMBL1138695, “Synthesis of stavudine amino acid ester prodrugs with broad-spectrum chemotherapeutic properties for the effective treatment of HIV/AIDS” (Bioorg Med Chem Lett, 2004).

Each structure is given as a SMILES string. ≈ marks a conversion by molar mass, not a printed value. Where only a bound is given, the exact number is not on record here.

Data set [1] relates to CCRF-CEM. As to the kind of experiment: Effective concentration of compound achieving 50% protection in CEM cell lines against the cytopathic effect of HIV-1. The data set is classed as functional, cell-based. The settings on record: Homo sapiens.
A further data set has as its system Priestia megaterium. Briefly: Antibacterial activity against Bacillus megatherium. The data set is classed as functional.
In a further data set the test system is Shigella sonnei. Briefly: Antibacterial activity against Shigella sonnei. The data set is classed as functional.
The test system of the next data set is Salmonella enteritidis. Briefly: Antibacterial activity against Salmonella enteritidis. In kind it is functional, Salmonella enterica subsp. enterica serovar Enteritidis. Particulars: Salmonella enterica.
Another data set concerns Vibrio fluvialis. As to the kind of experiment: Antibacterial activity against Vibrio fluvialis. The data set is classed as functional.
The test system of the next data set is Vibrio mimicus. Briefly: Antibacterial activity against Vibrio mimicus. The data set is classed as functional.
Data set [2] relates to CCRF-CEM. Briefly: Cytotoxic concentration of compound required to reduce the viability of mock infected CEM cells by 50%. In kind it is functional. Particulars: Homo sapiens.
A further data set relates to Escherichia coli. As to the kind of experiment: Antibacterial activity against Escherichia coli NCTC 10418. In kind it is functional.
A short description of data set [3]: Selectivity index expressed as the ratio of CC50 to EC50. The data set is classed as functional.
A further data set relates to Pseudomonas aeruginosa. Briefly: Antibacterial activity against Pseudomonas aeruginosa. The data set is classed as functional.
Another data set relates to Edwardsiella tarda. Briefly: Antibacterial activity against Edwardsiella tarda. In kind it is functional.
For a further data set, the system named is Vibrio parahaemolyticus. Briefly: Antibacterial activity against Vibrio parahaemolyticus. The data set is classed as functional.
In data set [4] the test system is Klebsiella pneumoniae. Briefly: Antibacterial activity against Klebsiella ozaenae. The data set is classed as functional. The settings on record: subsp. ozaenae.
In a further data set the test system is Plesiomonas shigelloides. As to the kind of experiment: Antibacterial activity against Plesiomonas shigelloides. The data set is classed as functional.
Another data set concerns Morganella morganii. Briefly: Antibacterial activity against Morganella morganii. In kind it is functional.
The subject of a further data set is Citrobacter freundii. Briefly: Antibacterial activity against Citrobacter ferundii. In kind it is functional.
The test system of data set [5] is Vibrio cholerae. Briefly: Antibacterial activity against Vibrio cholerae 01. In kind it is functional.
Another data set deals with Salmonella typhimurium. Briefly: Antibacterial activity against Salmonella Typhimurium. The settings on record: Salmonella enterica. The data set is classed as functional, Salmonella enterica subsp. enterica serovar Typhimurium.
In a further data set the test system is Proteus vulgaris. As to the kind of experiment: Antibacterial activity against Proteus vulgaris. In kind it is functional.
For the next data set, the system named is Proteus mirabilis. Briefly: Antibacterial activity against Proteus mirabilis. In kind it is functional.
Data set [6] has as its system Vibrio cholerae. Briefly: Antibacterial activity against Vibrio cholerae 0139. The data set is classed as functional.
In data set [7] the test system is Mycobacterium tuberculosis. Briefly: Antimycobacterial activity against Mycobacterium tuberculosis strain H37Rv. In kind it is functional. More on the design: concentration or dose not given beside the values.
Data set [8] is described as follows: In vitro hydrolysis in human plasma. In kind it is ADME, cell-free.
In data set [9] the test system is Klebsiella pneumoniae. As to the kind of experiment: Antibacterial activity against Klebsiella pneumoniae. In kind it is functional.
Another data set has as its system Shigella boydii. Briefly: Antibacterial activity against Shigella boydii. The data set is classed as functional.
The test system of the next data set is Enterobacter. Briefly: Antibacterial activity against Enterobacter. The data set is classed as functional.
The next data set has as its system Staphylococcus aureus. As to the kind of experiment: Antibacterial activity against Staphylococcus aureus. The data set is classed as functional.
The next data set has as its system Salmonella paratyphi. As to the kind of experiment: Antibacterial activity against Salmonella paratyphi A. The data set is classed as functional, Salmonella enterica subsp. enterica serovar Paratyphi A. The settings on record: Salmonella enterica.

In the data set on CCRF-CEM [1], `CCn1cc(C(=O)O)c(=O)c2cc(F)c(N3CCN(CC(=O)OCC4C=CC(n5cc(C)c(=O)[nH]c5=O)O4)CC3)cc21` (stereo not drawn) had an EC50 of 100 µM. The MIC against Priestia megaterium is 0.3 µg/mL (≈ 0.514 µM); with Shigella sonnei, 9.76 µg/mL (≈ 16.7 µM); against Salmonella enteritidis it was 9.76 µg/mL (≈ 16.7 µM); with Vibrio fluvialis it was 9.76 µg/mL (≈ 16.7 µM); in the data set on Vibrio mimicus, 0.61 µg/mL (≈ 1.05 µM); with Escherichia coli it was 1.22 µg/mL (≈ 2.09 µM). In addition, the MIC with Pseudomonas aeruginosa is 1.22 µg/mL (≈ 2.09 µM); against Edwardsiella tarda it was 9.76 µg/mL (≈ 16.7 µM); in the data set with Vibrio parahaemolyticus, 1.22 µg/mL (≈ 2.09 µM); in the data set on Klebsiella pneumoniae [4], 1.22 µg/mL (≈ 2.09 µM); with Plesiomonas shigelloides, 9.76 µg/mL (≈ 16.7 µM); with Morganella morganii, 9.76 µg/mL (≈ 16.7 µM). The MIC stood at 2.44 µg/mL (≈ 4.18 µM) in the data set on Citrobacter freundii; 0.61 µg/mL (≈ 1.05 µM) against Vibrio cholerae [5]; 9.76 µg/mL (≈ 16.7 µM) with Salmonella typhimurium; 9.76 µg/mL (≈ 16.7 µM) against Proteus vulgaris; 1.22 µg/mL (≈ 2.09 µM) with Proteus mirabilis; 0.61 µg/mL (≈ 1.05 µM) in the data set on Vibrio cholerae [6]. For the same compound, the MIC against Klebsiella pneumoniae [9] was 1.22 µg/mL (≈ 2.09 µM); against Shigella boydii, 0.61 µg/mL (≈ 1.05 µM); in the data set with Enterobacter, 0.3 µg/mL (≈ 0.514 µM); against Staphylococcus aureus it was 9.76 µg/mL (≈ 16.7 µM); with Salmonella paratyphi, 1.22 µg/mL (≈ 2.09 µM). In the data set with CCRF-CEM [2], this compound returned a CC50 of 210 µM. Further, the Selectivity index in data set [3] is 2.1. In addition, the Inhibition in [7] is 98%. The compound also yielded a half-life in data set [8] above 4 h.

As to `Cc1cn(C2C=CC(COC(=O)CNC(=O)c3ccncn3)O2)c(=O)[nH]c1=O` (stereo not drawn), the response in the data set on CCRF-CEM [1] was half-maximal at 0.52 µM (EC50). Besides, the MIC was 39.1 µg/mL (≈ 101 µM) in the data set on Priestia megaterium; 312 µg/mL (≈ 807 µM) with Shigella sonnei; 1250 µg/mL (≈ 3230 µM) with Salmonella enteritidis; 1250 µg/mL (≈ 3230 µM) in the data set with Vibrio fluvialis; 78.1 µg/mL (≈ 202 µM) with Vibrio mimicus; 1250 µg/mL (≈ 3230 µM) against Escherichia coli. Moreover, the MIC against Pseudomonas aeruginosa was 1250 µg/mL (≈ 3230 µM); in the data set with Edwardsiella tarda, 1250 µg/mL (≈ 3230 µM); in the data set with Vibrio parahaemolyticus, 1250 µg/mL (≈ 3230 µM); against Klebsiella pneumoniae [4] it was 1250 µg/mL (≈ 3230 µM); against Plesiomonas shigelloides, 312 µg/mL (≈ 807 µM); against Morganella morganii, 312 µg/mL (≈ 807 µM). Also, the MIC with Citrobacter freundii, with Vibrio cholerae [5], with Salmonella typhimurium, in the data set on Proteus vulgaris, in the data set on Proteus mirabilis and against Vibrio cholerae [6] was 1250 µg/mL (≈ 3230 µM) each time. For the same compound, the MIC worked out at 1250 µg/mL (≈ 3230 µM) against Klebsiella pneumoniae [9], 312 µg/mL (≈ 807 µM) in the data set on Shigella boydii, 39.1 µg/mL (≈ 101 µM) in the data set with Enterobacter and 1250 µg/mL (≈ 3230 µM) in the data set on Staphylococcus aureus. This compound came in with a CC50 with CCRF-CEM [2] of 567 µM. Moreover, the Selectivity index in [3] was found to be 1090. For the same compound, the Inhibition in data set [7] came to 0%. This compound also displayed a half-life in data set [8] of 1 h.

Turning to `Cc1cn(C2C=CC(COC(=O)CN(C)C)O2)c(=O)[nH]c1=O` (stereo not drawn), the EC50 in the data set on CCRF-CEM [1] was found to be 0.343 µM. Also, the CC50 in the data set on CCRF-CEM [2] amounted to 456 µM. For the same compound, the Selectivity index in data set [3] turned out to be 1330. Further, the half-life in data set [8] came out at 0.5 h.

`Cc1cn([C@H]2C=C[C@@H](CO)O2)c(=O)[nH]c1=O` [STAVUDINE] gave an EC50 with CCRF-CEM [1] of 0.09 µM. For the same compound, the half-maximal cytotoxic concentration (CC50) in the data set on CCRF-CEM [2] is above 100 µM. Also, in data set [3], the Selectivity index is above 1110. In addition, the Inhibition in data set [7] was 0%.
